Organism: Rattus norvegicus
Test: DrugMatrix - Regimen: Daily Repeat
Type: toxicity, organism-based, Sprague-Dawley
Set-up: regimen Daily Repeat, gender Male, age 6-8 weeks
Settings: in vivo, po, route oral GAVAGE, vehicle .5 % CMC; for BASOPHIL / EOSINOPHIL / ERYTHROCYTE COUNT / HEMATOCRIT / HEMOGLOBIN / LEUKOCYTE COUNT / LYMPHOCYTE / MEAN CORPUSCULAR HEMOGLOBIN / MEAN CORPUSCULAR HEMOGLOBIN CONCENTRATION / MEAN CORPUSCULAR VOLUME / MONOCYTE / NEUTROPHIL / PLATELET COUNT: tissue Blood; for ALANINE AMINOTRANSFERASE / ALBUMIN / ALKALINE PHOSPHATASE / ASPARTATE AMINOTRANSFERASE / BLOOD UREA NITROGEN / CHLORIDE / CHOLESTEROL / CREATINE PHOSPHOKINASE / CREATININE / GLUCOSE / PHOSPHORUS / POTASSIUM / SODIUM / TOTAL BILIRUBIN / TOTAL PROTEIN: tissue Plasma
[1] = 0 mg/kg, 72 h, dose level Control, time 3 day
[2] = 0 mg/kg, 120 h, dose level Control, time 5 day
[3] = 120 mg/kg, 72 h, dose level Low, time 3 day
[4] = 120 mg/kg, 120 h, dose level Low, time 5 day
[5] = 1500 mg/kg, 72 h, dose level High, time 3 day
[6] = 1500 mg/kg, 120 h, dose level High, time 5 day

CC1CC(OC(=O)C(O)c2ccccc2)CC(C)(C)C1 (stereo not drawn) [CYCLANDELATE]
BASOPHIL [1]: 0%
EOSINOPHIL [1]: 0%
ERYTHROCYTE COUNT [1]: 6.34 x10E6/uL
HEMATOCRIT [1]: 37.62%
HEMOGLOBIN [1]: 14.82 G/DL
LEUKOCYTE COUNT [1]: 11.18 x10E3/uL
LYMPHOCYTE [1]: 87.5%
MEAN CORPUSCULAR HEMOGLOBIN [1]: 23.48 pg
MEAN CORPUSCULAR HEMOGLOBIN CONCENTRATION [1]: 39.5 G/DL
MEAN CORPUSCULAR VOLUME [1]: 59.45 fL
MONOCYTE [1]: 1.67%
NEUTROPHIL [1]: 10.83%
PLATELET COUNT [1]: 1074.83 x10E3/uL
ALANINE AMINOTRANSFERASE [1]: 36.5 u/L
ALBUMIN [1]: 3.9 G/DL
ALKALINE PHOSPHATASE [1]: 370.17 u/L
ASPARTATE AMINOTRANSFERASE [1]: 63.17 u/L
BLOOD UREA NITROGEN [1]: 16.83 mg/dL
CHLORIDE [1]: 99.33 MEQ/L
CHOLESTEROL [1]: 64.33 mg/dL
CREATINE PHOSPHOKINASE [1]: 127 u/L
CREATININE [1]: 0.55 mg/dL
GLUCOSE [1]: 173.5 mg/dL
PHOSPHORUS [1]: 10.08 mg/dL
POTASSIUM [1]: 6.23 MEQ/L
SODIUM [1]: 143.5 MEQ/L
TOTAL BILIRUBIN [1]: 0.52 mg/dL
TOTAL PROTEIN [1]: 6.35 G/DL
BASOPHIL [2]: 0%
EOSINOPHIL [2]: 0.17%
ERYTHROCYTE COUNT [2]: 6.12 x10E6/uL
HEMATOCRIT [2]: 37.08%
HEMOGLOBIN [2]: 14.82 G/DL
LEUKOCYTE COUNT [2]: 11.87 x10E3/uL
LYMPHOCYTE [2]: 83.33%
MEAN CORPUSCULAR HEMOGLOBIN [2]: 24.25 pg
MEAN CORPUSCULAR HEMOGLOBIN CONCENTRATION [2]: 39.97 G/DL
MEAN CORPUSCULAR VOLUME [2]: 60.65 fL
MONOCYTE [2]: 1.5%
NEUTROPHIL [2]: 15%
PLATELET COUNT [2]: 1042.83 x10E3/uL
ALANINE AMINOTRANSFERASE [2]: 46 u/L
ALBUMIN [2]: 3.82 G/DL
ALKALINE PHOSPHATASE [2]: 369.5 u/L
ASPARTATE AMINOTRANSFERASE [2]: 65 u/L
BLOOD UREA NITROGEN [2]: 16.33 mg/dL
CHLORIDE [2]: 100.67 MEQ/L
CHOLESTEROL [2]: 57.17 mg/dL
CREATINE PHOSPHOKINASE [2]: 130 u/L
CREATININE [2]: 0.53 mg/dL
GLUCOSE [2]: 163.33 mg/dL
PHOSPHORUS [2]: 9.53 mg/dL
POTASSIUM [2]: 6.27 MEQ/L
SODIUM [2]: 144.83 MEQ/L
TOTAL BILIRUBIN [2]: 0.55 mg/dL
TOTAL PROTEIN [2]: 6.32 G/DL
BASOPHIL [3]: 0%
EOSINOPHIL [3]: 0.67%
ERYTHROCYTE COUNT [3]: 6.2 x10E6/uL
HEMATOCRIT [3]: 37.27%
HEMOGLOBIN [3]: 14.57 G/DL
LEUKOCYTE COUNT [3]: 11.3 x10E3/uL
LYMPHOCYTE [3]: 86.33%
MEAN CORPUSCULAR HEMOGLOBIN [3]: 23.5 pg
MEAN CORPUSCULAR HEMOGLOBIN CONCENTRATION [3]: 39.1 G/DL
MEAN CORPUSCULAR VOLUME [3]: 60.1 fL
MONOCYTE [3]: 1.33%
NEUTROPHIL [3]: 11.67%
PLATELET COUNT [3]: 1168 x10E3/uL
ALANINE AMINOTRANSFERASE [3]: 38.33 u/L
ALBUMIN [3]: 3.93 G/DL
ALKALINE PHOSPHATASE [3]: 369.67 u/L
ASPARTATE AMINOTRANSFERASE [3]: 55.67 u/L
BLOOD UREA NITROGEN [3]: 14 mg/dL
CHLORIDE [3]: 99 MEQ/L
CHOLESTEROL [3]: 67.67 mg/dL
CREATINE PHOSPHOKINASE [3]: 114.33 u/L
CREATININE [3]: 0.53 mg/dL
GLUCOSE [3]: 156 mg/dL
PHOSPHORUS [3]: 10.37 mg/dL
POTASSIUM [3]: 6.13 MEQ/L
SODIUM [3]: 144.67 MEQ/L
TOTAL BILIRUBIN [3]: 0.37 mg/dL
TOTAL PROTEIN [3]: 6.33 G/DL
BASOPHIL [4]: 0%
EOSINOPHIL [4]: 0%
ERYTHROCYTE COUNT [4]: 5.8 x10E6/uL
HEMATOCRIT [4]: 35%
HEMOGLOBIN [4]: 14.13 G/DL
LEUKOCYTE COUNT [4]: 12.1 x10E3/uL
LYMPHOCYTE [4]: 90.33%
MEAN CORPUSCULAR HEMOGLOBIN [4]: 24.37 pg
MEAN CORPUSCULAR HEMOGLOBIN CONCENTRATION [4]: 40.4 G/DL
MEAN CORPUSCULAR VOLUME [4]: 60.3 fL
MONOCYTE [4]: 0.67%
NEUTROPHIL [4]: 9%
PLATELET COUNT [4]: 1005.67 x10E3/uL
ALANINE AMINOTRANSFERASE [4]: 37 u/L
ALBUMIN [4]: 3.63 G/DL
ALKALINE PHOSPHATASE [4]: 308.67 u/L
ASPARTATE AMINOTRANSFERASE [4]: 59 u/L
BLOOD UREA NITROGEN [4]: 13.33 mg/dL
CHLORIDE [4]: 99.67 MEQ/L
CHOLESTEROL [4]: 64 mg/dL
CREATINE PHOSPHOKINASE [4]: 121.33 u/L
CREATININE [4]: 0.53 mg/dL
GLUCOSE [4]: 159 mg/dL
PHOSPHORUS [4]: 10.83 mg/dL
POTASSIUM [4]: 6.27 MEQ/L
SODIUM [4]: 145.33 MEQ/L
TOTAL BILIRUBIN [4]: 0.37 mg/dL
TOTAL PROTEIN [4]: 5.93 G/DL
BASOPHIL [5]: 0%
EOSINOPHIL [5]: 0%
ERYTHROCYTE COUNT [5]: 5.97 x10E6/uL
HEMATOCRIT [5]: 37.13%
HEMOGLOBIN [5]: 14.77 G/DL
LEUKOCYTE COUNT [5]: 13.43 x10E3/uL
LYMPHOCYTE [5]: 84.67%
MEAN CORPUSCULAR HEMOGLOBIN [5]: 24.83 pg
MEAN CORPUSCULAR HEMOGLOBIN CONCENTRATION [5]: 39.77 G/DL
MEAN CORPUSCULAR VOLUME [5]: 62.27 fL
MONOCYTE [5]: 0.33%
NEUTROPHIL [5]: 15%
PLATELET COUNT [5]: 1199 x10E3/uL
ALANINE AMINOTRANSFERASE [5]: 42.67 u/L
ALBUMIN [5]: 3.77 G/DL
ALKALINE PHOSPHATASE [5]: 377.33 u/L
ASPARTATE AMINOTRANSFERASE [5]: 59.67 u/L
BLOOD UREA NITROGEN [5]: 13.67 mg/dL
CHLORIDE [5]: 98.33 MEQ/L
CHOLESTEROL [5]: 67.67 mg/dL
CREATINE PHOSPHOKINASE [5]: 127.67 u/L
CREATININE [5]: 0.57 mg/dL
GLUCOSE [5]: 161.67 mg/dL
PHOSPHORUS [5]: 11.5 mg/dL
POTASSIUM [5]: 6.17 MEQ/L
SODIUM [5]: 143.33 MEQ/L
TOTAL BILIRUBIN [5]: 0.57 mg/dL
TOTAL PROTEIN [5]: 6.03 G/DL
BASOPHIL [6]: 0%
EOSINOPHIL [6]: 0.5%
ERYTHROCYTE COUNT [6]: 5.77 x10E6/uL
HEMATOCRIT [6]: 35.95%
HEMOGLOBIN [6]: 14.35 G/DL
LEUKOCYTE COUNT [6]: 10.4 x10E3/uL
LYMPHOCYTE [6]: 91.5%
MEAN CORPUSCULAR HEMOGLOBIN [6]: 24.9 pg
MEAN CORPUSCULAR HEMOGLOBIN CONCENTRATION [6]: 39.9 G/DL
MEAN CORPUSCULAR VOLUME [6]: 62.4 fL
MONOCYTE [6]: 0%
NEUTROPHIL [6]: 8%
PLATELET COUNT [6]: 1077.5 x10E3/uL
ALANINE AMINOTRANSFERASE [6]: 34.67 u/L
ALBUMIN [6]: 3.77 G/DL
ALKALINE PHOSPHATASE [6]: 393 u/L
ASPARTATE AMINOTRANSFERASE [6]: 55.67 u/L
BLOOD UREA NITROGEN [6]: 14.33 mg/dL
CHLORIDE [6]: 100 MEQ/L
CHOLESTEROL [6]: 87 mg/dL
CREATINE PHOSPHOKINASE [6]: 123.67 u/L
CREATININE [6]: 0.57 mg/dL
GLUCOSE [6]: 158 mg/dL
PHOSPHORUS [6]: 11.47 mg/dL
POTASSIUM [6]: 6.4 MEQ/L
SODIUM [6]: 144.33 MEQ/L
TOTAL BILIRUBIN [6]: 0.37 mg/dL
TOTAL PROTEIN [6]: 6.17 G/DL
